Where a name gives a salt, the structure may show the parent alone.
How the values were obtained:
[1] = Hygroscopicity: exposure of powder or granules to relative humidity at 25° C. for 24 hours; format: physicochemical
Method: By “hygroscopic” is meant herein the bothersome property shown by most of L-carnitine and alkanoyl L-carnitine salts (particularly by their “inner salts”) to undergo, when they occur as powders or granules, significant alteration of their flowability due to their clotting, agglomeration or even deliquescence, following exposure to an environment of relative humidity […] 50-60%, at 25° C., for 24 hours.

[2] = known from prior art / marketed product; cited from earlier work

Compound | hygroscopicity of the isolated solid ([1]; non-hygroscopic = withstands relative humidity of at least 60%, as powder or granules, without clotting, agglomeration or deliquescence) | relative humidity withstood without loss of flowability ([1]; powder or granules) | hygroscopicity (prior art statement) [2]
CC(=O)O[C@H](CC(=O)O)C[N+](C)(C)C.O=C([O-])/C=C/C(=O)O [ALCFH, acetyl L-carnitine acid fumarate] | non-hygroscopic | ≥ 60% | 
C[N+](C)(C)C[C@H](O)CC(=O)O.O=C([O-])/C=C/C(=O)O [L-carnitine acid fumarate] |  |  | non-hygroscopic
CC(=O)O[C@H](CC(=O)[O-])C[N+](C)(C)C [acetyl L-carnitine inner salt] |  |  | high hygroscopicity

— patent US20030119904A1, “Acetyl L-carnitine salt with a dicarboxilic organic acid and process for preparing same” (priority 2001, published 2003)
